Legend:
A-375 [1] = assay: Induction of apoptosis in human A375 cells assessed as early apoptotic cells at 3 uM after 36 hrs by Annexin V-FITC/propidium iodide staining based flow cytometry (reference value: 1.22 to 1.64%); assay type: functional
A-375 [2] = assay: Antiproliferative activity against human A375 cells harboring BRAF V600E mutant after 24 hrs by MTT assay; assay type: functional, cell-based; details: A-375, 24 h
A-375 [3] = assay: Induction of apoptosis in human A375 cells assessed as early apoptotic cells at 3 uM after 24 hrs by Annexin V-FITC/propidium iodide staining based flow cytometry (reference value: 1.22 to 1.64%); assay type: functional
A-375 [4] = assay: Cell cycle arrest in human A375 cells assessed as accumulation at G2/M phase at 3 uM after 12 hrs by propidium iodide staining-based flow cytometry (reference value: 7.91 to 21.07%); assay type: functional
A-375 [5] = assay: Induction of apoptosis in human A375 cells assessed as late apoptotic cells at 3 uM after 12 hrs by Annexin V-FITC/propidium iodide staining based flow cytometry (reference value: 3.80 to 4.61%); assay type: functional
A-375 [6] = assay: Induction of apoptosis in human A375 cells assessed as late apoptotic cells at 3 uM after 36 hrs by Annexin V-FITC/propidium iodide staining based flow cytometry (reference value: 3.80 to 4.61%); assay type: functional
A-375 [7] = assay: Induction of apoptosis in human A375 cells assessed as late apoptotic cells at 3 uM after 24 hrs by Annexin V-FITC/propidium iodide staining based flow cytometry (reference value: 3.80 to 4.61%); assay type: functional
A-375 [8] = assay: Induction of apoptosis in human A375 cells assessed as necrotic cells at 3 uM after 36 hrs by Annexin V-FITC/propidium iodide staining based flow cytometry (reference value: 0.635 to 3.12%); assay type: functional
A-375 [9] = assay: Induction of apoptosis in human A375 cells assessed as early apoptotic cells at 1 uM after 24 hrs by Annexin V-FITC/propidium iodide staining based flow cytometry (reference value: 1.22 to 1.64%); assay type: functional
A-375 [10] = assay: Cell cycle arrest in human A375 cells assessed as accumulation at G2/M phase at 1 uM after 24 hrs by propidium iodide staining-based flow cytometry (reference value: 7.91 to 21.07%); assay type: functional
A-375 [11] = assay: Cell cycle arrest in human A375 cells assessed as accumulation at S phase at 3 uM after 24 hrs by propidium iodide staining-based flow cytometry (reference value: 20.08 to 31.09%); assay type: functional
A-375 [12] = assay: Induction of apoptosis in human A375 cells after 24 hrs by Annexin V-FITC/propidium iodide staining based flow cytometry; assay type: functional, cell-based
A-375 [13] = assay: Induction of apoptosis in human A375 cells assessed as viable cells at 3 uM after 12 hrs by Annexin V-FITC/propidium iodide staining based flow cytometry (reference value: 90.6 to 94.3%); assay type: functional; details: A-375, 12 h, read-out: Activity
A-375 [14] = assay: Cell cycle arrest in human A375 cells assessed as accumulation at G1 phase at 3 uM after 24 hrs by propidium iodide staining-based flow cytometry (reference value: 59.02 to 60.22%); assay type: functional
[15] = molecular target: Serine/threonine-protein kinase B-raf (Mus musculus, UniProt P28028, V600E); assay: Inhibition of full-length GST-tagged mouse BRAF V600E mutant using recombinant human full length N-terminal His-tagged MEK1 as substrate preincubated for 1 hr followed by substrate addition measured after 25 mins by Nu-page gel-based phosphor screen analysis
A-375 [16] = assay: Induction of apoptosis in human A375 cells at 3 uM by Annexin V-FITC/propidium iodide staining based flow cytometry; assay type: functional, cell-based; details: TDE = time-dependent effect
A-375 [17] = assay: Induction of apoptosis in human A375 cells assessed as necrotic cells at 10 uM after 24 hrs by Annexin V-FITC/propidium iodide staining based flow cytometry (reference value: 0.635 to 3.12%); assay type: functional
A-375 [18] = assay: Cell cycle arrest in human A375 cells assessed as accumulation at S phase at 1 uM after 24 hrs by propidium iodide staining-based flow cytometry (reference value: 20.08 to 31.09%); assay type: functional
[19] = Antiproliferative activity against human WM1361 cells harboring wild-type BRAF after 48 hrs by MTT assay; assay type: functional, cell-based; details: WM1361, 48 h
A-375 [20] = assay: Induction of apoptosis in human A375 cells assessed as early apoptotic cells at 3 uM after 12 hrs by Annexin V-FITC/propidium iodide staining based flow cytometry (reference value: 1.22 to 1.64%); assay type: functional
A-375 [21] = assay: Cell cycle arrest in human A375 cells assessed as accumulation at G1 phase after 24 hrs by propidium iodide staining-based flow cytometry; assay type: functional
A-375 [22] = assay: Induction of apoptosis in human A375 cells assessed as viable cells at 3 uM after 36 hrs by Annexin V-FITC/propidium iodide staining based flow cytometry (reference value: 90.6 to 94.3%); assay type: functional; details: A-375, 36 h, read-out: Activity
A-375 [23] = assay: Induction of apoptosis in human A375 cells assessed as necrotic cells at 1 uM after 24 hrs by Annexin V-FITC/propidium iodide staining based flow cytometry (reference value: 0.635 to 3.12%); assay type: functional
A-375 [24] = assay: Induction of apoptosis in human A375 cells assessed as late apoptotic cells at 1 uM after 24 hrs by Annexin V-FITC/propidium iodide staining based flow cytometry (reference value: 3.80 to 4.61%); assay type: functional
A-375 [25] = assay: Cell cycle arrest in human A375 cells assessed as accumulation at G1 phase at 3 uM after 12 hrs by propidium iodide staining-based flow cytometry (reference value: 59.02 to 60.22%); assay type: functional
A-375 [26] = assay: Cell cycle arrest in human A375 cells assessed as accumulation at G1 phase at 3 uM by propidium iodide staining-based flow cytometry; assay type: functional; details: TDE = time-dependent effect
HT-29 = assay: Antiproliferative activity against human HT-29 cells harboring BRAF V600E mutant after 24 hrs by MTT assay; assay type: functional, cell-based; details: HT-29, 24 h
A-375 [27] = assay: Cell cycle arrest in human A375 cells assessed as accumulation at G1 phase at 1 uM after 24 hrs by propidium iodide staining-based flow cytometry (reference value: 59.02 to 60.22%); assay type: functional
A-375 [28] = assay: Induction of apoptosis in human A375 cells assessed as viable cells at 10 uM after 24 hrs by Annexin V-FITC/propidium iodide staining based flow cytometry (reference value: 90.6 to 94.3%); assay type: functional; details: A-375, 24 h, read-out: Activity
A-375 [29] = assay: Cell cycle arrest in human A375 cells assessed as accumulation at G2/M phase at 3 uM after 36 hrs by propidium iodide staining-based flow cytometry (reference value: 7.91 to 21.07%); assay type: functional
A-375 [30] = assay: Cell cycle arrest in human A375 cells assessed as accumulation at G2/M phase at 10 uM after 24 hrs by propidium iodide staining-based flow cytometry (reference value: 7.91 to 21.07%); assay type: functional
A-375 [31] = assay: Induction of apoptosis in human A375 cells assessed as early apoptotic cells at 10 uM after 24 hrs by Annexin V-FITC/propidium iodide staining based flow cytometry (reference value: 1.22 to 1.64%); assay type: functional
A-375 [32] = assay: Induction of apoptosis in human A375 cells assessed as necrotic cells at 3 uM after 24 hrs by Annexin V-FITC/propidium iodide staining based flow cytometry (reference value: 0.635 to 3.12%); assay type: functional

Sequence of Serine/threonine-protein kinase B-raf (P28028 whole entry, looked up, stated change not applied): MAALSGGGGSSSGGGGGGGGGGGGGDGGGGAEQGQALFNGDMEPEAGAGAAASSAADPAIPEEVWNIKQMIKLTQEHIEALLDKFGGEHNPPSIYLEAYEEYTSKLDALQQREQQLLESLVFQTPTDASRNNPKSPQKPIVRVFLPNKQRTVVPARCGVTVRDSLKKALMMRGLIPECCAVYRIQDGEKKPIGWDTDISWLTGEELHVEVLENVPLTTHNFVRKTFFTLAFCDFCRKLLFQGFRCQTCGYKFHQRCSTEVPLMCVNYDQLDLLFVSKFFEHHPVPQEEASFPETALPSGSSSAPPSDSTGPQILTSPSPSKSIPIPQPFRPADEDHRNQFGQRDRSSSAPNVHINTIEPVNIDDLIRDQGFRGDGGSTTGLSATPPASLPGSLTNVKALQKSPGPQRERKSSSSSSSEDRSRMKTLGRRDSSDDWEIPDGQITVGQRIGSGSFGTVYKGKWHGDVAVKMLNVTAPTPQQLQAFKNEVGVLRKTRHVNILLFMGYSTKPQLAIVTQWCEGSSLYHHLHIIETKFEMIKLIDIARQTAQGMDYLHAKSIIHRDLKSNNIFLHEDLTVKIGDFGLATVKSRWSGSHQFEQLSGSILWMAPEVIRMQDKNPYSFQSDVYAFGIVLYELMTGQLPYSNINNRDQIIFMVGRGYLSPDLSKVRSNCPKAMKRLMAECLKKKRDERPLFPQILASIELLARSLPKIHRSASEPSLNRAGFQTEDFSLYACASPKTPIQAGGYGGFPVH

IC50 (A-375 [2]): 960 nM
IC50 [15]: 100 nM
IC50 (HT-29): 2170 nM
Structure (SMILES): COc1ccc(-n2cc(NC(=O)Cn3ccc(-c4cccc(Cl)c4)n3)cn2)cc1
Activity (A-375 [1]): 1.95%
Activity (A-375 [3]): 3.01 - 3.25%
Activity (A-375 [4]): 11.44%
Activity (A-375 [5]): 19.7%
Activity (A-375 [6]): 59.7%
Activity (A-375 [7]): 19.1 - 29.2%
Activity (A-375 [8]): 5.58%
Activity (A-375 [9]): 1.92%
Activity (A-375 [10]): 15.89%
Activity (A-375 [11]): 43.96 - 45.74%
Activity (A-375 [12]): Dose-dependent effect
viability at 3 µM (A-375 [13]): 65.3%
Activity (A-375 [14]): 40.19 - 43.48%
Activity (A-375 [16]): Tde
Activity (A-375 [17]): 7.54%
Activity (A-375 [18]): 29.07%
IC50 [19]: 10200 nM
Activity (A-375 [20]): 5.22%
Activity (A-375 [21]): Dose-dependent effect
viability at 3 µM (A-375 [22]): 32.8%
Activity (A-375 [23]): 4.51%
Activity (A-375 [24]): 14.1%
Activity (A-375 [25]): 51.08%
Activity (A-375 [26]): Tde
Activity (A-375 [27]): 50.93%
viability at 10 µM (A-375 [28]): 53.2%
Activity (A-375 [29]): 10.06%
Activity (A-375 [30]): 10.95%
Activity (A-375 [31]): 1.81%
Activity (A-375 [32]): 2.89 - 4.99%

Reference: ChEMBL document CHEMBL4190403, “Design, synthesis, and biological evaluation of pyrazole derivatives containing acetamide bond as potential BRAFV600E inhibitors” (Bioorg Med Chem Lett, 2018)
